Experimental findings from ChEMBL document CHEMBL1201862, “PubChem BioAssay data set” (2004) are described below.

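Dose response: 5 concentrations. Exposure: 48 h. Format: 96-well plates. Endpoint: linear interpolation; highest concentration if not reached. At the GI50, growth is halved.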 Calls of active or inactive are those of the source. Cut-off read from the data, not from the text of the source: active = GI50 up to about 1.1 µM and inactive = higher.

Holding throughout (assay): NCI tumour cell line growth inhibition, 48 h
For experiment [1], the system named is SNB-75.
Experiment [2] concerns CAKI-1.
For experiment [3], the system named is SN12C.
Experiment [4] relates to CCRF-CEM.
Experiment [5] relates to HL-60.
Experiment [6] relates to MOLT-4.
The test system of experiment [7] is HT-29.
Experiment [8] concerns UACC-62.
In experiment [9] the test system is SK-OV-3.
Experiment [10] has as its system PC-3.
In experiment [11] the test system is NCI-H23.
The test system of experiment [12] is OVCAR-8.
The test system of experiment [13] is SF-268.
In experiment [14] the test system is NCI-H522.
The test system of experiment [15] is SNB-19.
For experiment [16], the system named is Malme-3M.
The subject of experiment [17] is HOP-62.
Experiment [18] deals with DU-145.
The test system of experiment [19] is U-251.
In experiment [20] the test system is HCC 2998.

`ClC1=NN=C(c2c[nH]c3ccccc23)CC1NCc1ccccc1` (centres undefined): the GI50 in experiment [1], in experiment [2], in experiment [3], in experiment [4], in [5] and in experiment [6] was > 100 µM (inactive) in each case. The GI50 in experiment [7], in experiment [8], in experiment [9], in experiment [10], in experiment [11] and in [12] was > 100 µM (inactive) in each case. Also, the GI50 in experiment [13], in [14], in experiment [15], in experiment [16], in experiment [17] and in experiment [18] was > 100 µM (inactive) throughout. In addition, in [19], the GI50 was > 100 µM (inactive).
As for `C1CSCC2(COC2)CS1`, the GI50 in experiment [1], in [3], in experiment [4], in experiment [6], in [20] and in experiment [7] was > 100 µM (inactive) each time. The GI50 in [9], in experiment [10], in [11], in [12], in [13] and in experiment [14] was > 100 µM (inactive) throughout. Moreover, the GI50 in [15], in experiment [18] and in [19] was > 100 µM (inactive) throughout.
As to `C[N+]1(CCCC[N+]2(C)CCCCCCC2)CCCCCCC1`, the GI50 in experiment [2], in [3], in experiment [4], in experiment [5], in experiment [6] and in experiment [7] was > 100 µM (inactive) throughout. The GI50 in experiment [8], in experiment [10], in experiment [11], in experiment [12], in [13] and in experiment [14] was > 100 µM (inactive) each time. In addition, the GI50 in [15], in experiment [16], in experiment [17], in experiment [18] and in experiment [19] was > 100 µM (inactive) each time.
Turning to `C=C1C(O)CC[C@]2(C)C1C1OC(C)(C)O[C@]13CC(=O)C(C)=C([C@H]1OC(C)(C)OC12)C3(C)C` (some centres undefined), the GI50 in [1] was > 100 µM (inactive); in [2], > 100 µM (inactive); in [3], > 100 µM (inactive); in experiment [4] it was > 100 µM (inactive); in experiment [5], > 100 µM (inactive); in experiment [6], 58.6 µM (inactive). Further, the GI50 in experiment [20], in experiment [7], in [8], in experiment [9], in [11] and in experiment [12] was > 100 µM (inactive) in each case. For the same compound, the GI50 in experiment [13], in experiment [15], in experiment [16], in experiment [17], in experiment [18] and in [19] was > 100 µM (inactive) throughout.
As for `COc1cc(/C=C2/SC(c3ccccc3)N(c3cccc(Cl)c3)C2=O)cc(OC)c1OC` (centres undefined), the GI50 in [2] was 35.9 µM (inactive); in experiment [3], 17.5 µM (inactive); in experiment [4], 11.3 µM (inactive); in [5] it was 29.8 µM (inactive); in experiment [6], 24.7 µM (inactive); in [20], 36.3 µM (inactive). Further, the GI50 in experiment [7] was 25.6 µM (inactive); in [8], 18.4 µM (inactive); in experiment [9], 20.9 µM (inactive); in [11], 22.9 µM (inactive); in experiment [12], 23.1 µM (inactive); in experiment [13], 21 µM (inactive). The GI50 in experiment [14] was 11.5 µM (inactive); in experiment [15], 27.9 µM (inactive); in [16] it was 24.6 µM (inactive); in experiment [17], 39.8 µM (inactive); in experiment [18] it was 39.1 µM (inactive); in [19], 27.6 µM (inactive).
In the case of `Oc1cc(-c2ccc(F)cc2)nc2ncccc12`, the GI50 in experiment [1] was 20.7 µM (inactive); in experiment [2], 70.5 µM (inactive); in experiment [3] it was > 100 µM (inactive); in experiment [4], 36.2 µM (inactive); in [6] it was 52.7 µM (inactive); in [20], > 100 µM (inactive). Also, the GI50 in [7] is 42.7 µM (inactive); in experiment [8] it was 33.8 µM (inactive); in experiment [9], 30.3 µM (inactive); in experiment [11], 63.4 µM (inactive); in experiment [12], 77.8 µM (inactive); in [13] it was 62.1 µM (inactive). The GI50 in experiment [14] was 35.4 µM (inactive); in experiment [15] it was 80.2 µM (inactive); in experiment [16], 65.6 µM (inactive); in experiment [17], 98.2 µM (inactive); in experiment [18], 74.6 µM (inactive).
As to `CC1(C)CC(C2=NCCO2)CC(C)(C)N1`, the GI50 in experiment [1], in experiment [2], in experiment [3], in experiment [4], in [5] and in experiment [6] was > 100 µM (inactive) throughout. The GI50 in [7], in experiment [8], in experiment [9], in experiment [10], in [11] and in experiment [12] was > 100 µM (inactive) throughout. For the same compound, the GI50 in experiment [13], in experiment [15], in experiment [16], in [17], in experiment [18] and in experiment [19] was > 100 µM (inactive) each time.
As for `CN1CN(c2ccccc2)C2(CCN(CCCCCCF)CC2)C1=O`, the GI50 was > 100 µM (inactive) in experiment [1]; 41.9 µM (inactive) in [2]; 68.9 µM (inactive) in [3]; 37.9 µM (inactive) in experiment [4]; > 100 µM (inactive) in experiment [5]; 48.9 µM (inactive) in [6]. For the same compound, the GI50 was 30.9 µM (inactive) in experiment [7]; 90.2 µM (inactive) in experiment [8]; > 100 µM (inactive) in [9]; > 100 µM (inactive) in experiment [10]; 94 µM (inactive) in [11]; > 100 µM (inactive) in [12]. For the same compound, the GI50 was 94.8 µM (inactive) in experiment [13]; > 100 µM (inactive) in experiment [14]; 71.1 µM (inactive) in experiment [15]; > 100 µM (inactive) in experiment [16]; 31.1 µM (inactive) in experiment [17]; 44.1 µM (inactive) in [18]. In addition, the GI50 in experiment [19] was 97.1 µM (inactive).
As for `Oc1cccc(-c2ccc3c4c2O[C@H]2c5[nH]c6ccccc6c5C[C@@]5(O)[C@@H](C3)N(CC3CC3)CC[C@]425)c1`, the GI50 in experiment [2] is 1.75 µM (inactive); in experiment [3], 1.67 µM (inactive); in experiment [4], 1.9 µM (inactive); in [5], 1.65 µM (inactive); in experiment [7], 1.7 µM (inactive); in [10], 1.98 µM (inactive). In addition, the GI50 is 2.3 µM (inactive) in experiment [11]; 1.83 µM (inactive) in experiment [12]; 1.68 µM (inactive) in experiment [13]; 1.64 µM (inactive) in experiment [15]; 1.86 µM (inactive) in [16]; 1.87 µM (inactive) in experiment [18].
On to `Cc1cc(C)c2c(n1)S(=O)(=O)N(CCCN1CCN(c3cccc(C(F)(F)F)c3)CC1)C(C(=O)c1ccc(Cl)cc1)=C2O`, for which the GI50 in [1] was 2.81 µM (inactive); in experiment [2], 1.11 µM (active); in experiment [3] it was 2.02 µM (inactive); in experiment [4] it was 8.15 µM (inactive); in [5] it was 1.87 µM (inactive); in experiment [6] it was 0.418 µM (active). Also, the GI50 in experiment [7] was 4.03 µM (inactive); in [8], 4.74 µM (inactive); in [9], 5.81 µM (inactive); in experiment [10], 2.88 µM (inactive); in experiment [11], 2.47 µM (inactive); in experiment [12] it was 3.83 µM (inactive). In addition, the GI50 in experiment [13] was 3.69 µM (inactive); in [14], 2.7 µM (inactive); in experiment [15], 2.2 µM (inactive); in experiment [16] it was 3.27 µM (inactive); in [17] it was 5.81 µM (inactive); in experiment [18], 4.67 µM (inactive). For the same compound, the GI50 in experiment [19] is 2.65 µM (inactive).
With `CCOC(=O)NNC(=O)NCCCCNC(=O)NNC(=O)OCC`, the GI50 is 0.458 µM (active) in experiment [1]; > 100 µM (inactive) in experiment [2]; > 100 µM (inactive) in experiment [3]; > 100 µM (inactive) in [4]; > 100 µM (inactive) in experiment [5]; > 100 µM (inactive) in experiment [6]. In addition, the GI50 in [7], in experiment [8], in experiment [9], in [10], in [11] and in experiment [12] was > 100 µM (inactive) in each case. The GI50 in experiment [14], in experiment [15], in experiment [17], in experiment [18] and in experiment [19] was > 100 µM (inactive) throughout.
